Measurements taken from patent publication US20180299431A1, “Explant Assay to Determine the Potential for Compositions to Promote or to Inhibit Neural Tube Defects” (Board of Supervisors of Louisiana State University and …, priority 2015, published 2018).

How the values were obtained:
diabetic NOD pregnancies = assay: NOD diabetic pregnancies and folinic acid supplementation; assay type: in vivo, mouse
Description: All animal experiments were performed with prior approval from the Pennington Biomedical Research Center IACUC, and were conducted in accordance with the “Guide for the care and use of laboratory animals” of the United States National Institutes of Health. Animals were housed with a 12-hour light/dark cycle, with access to food and water ad libitum. Mice of the Non-Obese Diabetic strain (NOD/ShiLtJ, The Jackson Laboratory, Bar Harbor, Me.; sometimes referred to as “NOD” mice), as well as male mice of strain FVB were kept on Purina™ 5001 diet (calories provided by: Protein, 28.5%; Fat, 13.5%; Carbohydrate, 58%. LabDiet, Purina Mills Inc., Gray Summit, Mo.). Females of strain FVB were kept on Purina 5015 diet (calories provided by: Protein, 19.8%; Fat, 25.3%; Carbohydrate, 54.8%). Blood glucose levels were monitored weekly in NOD mice. Once blood glucose exceeded 250 mg/dl, females were considered diabetic, and were then used for mating and production of embryos. Diabetic as well as normoglycemic NOD female mice were mated to normoglycemic NOD male mice; once NOD males became hyperglycemic, they were retired from the experiment and were no longer used. Supplementation with folinic acid (12.5 mg/kg body weight, once per week by intraperitoneal injection) was initiated at the age of 10 weeks in 56 NOD females. […]

[1] = system: STZ-induced diabetic mouse pregnancies; details: cited from earlier work

## Nc1nc(=O)c2c([nH]1)NCC(CNc1ccc(C(=O)N[C@@H](CCC(=O)O)C(=O)O)cc1)N2C=O (mixture of isomers) [folinic acid]
Diabetic NOD pregnancies; NOD strain, folinic acid supplementation
  NTD incidence (in words): reduced
Diabetic NOD pregnancies; diabetic NOD pregnancies, gestation day 10.5, 12.5 mg/kg once per week i.p., 17 NTDs in 81 embryos, unsupplemented 40.2%, Fisher's Exact Test p=0.006
  incidence of neural tube defects in embryos: 21%

## Nc1nc2ncc(CNc3ccc(C(=O)N[C@@H](CCC(=O)O)C(=O)O)cc3)nc2c(=O)[nH]1 [folic acid]
[1]
  effect on NTDs (in words): beneficial effects
